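Compound exposure: 48 hours, 5 concentrations, 96-well plates. GI50 = concentration required for 50% inhibition of growth.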 Activity calls are given as the source filed them. Cut-off read from the data, not from the text of the source: active = GI50 up to about 1.1 µM and inactive = higher.
What was measured:
Experiment in all cases: NCI-60 cell line screen, 48 h
T47D = tested on: T47D
HOP-62 = tested on: HOP-62
K562 = tested on: K562
SK-MEL-28 = tested on: SK-MEL-28
NCI-H522 = tested on: NCI-H522
OVCAR-8 = tested on: OVCAR-8
RPMI-8226 = tested on: RPMI-8226
DU-145 = tested on: DU-145
UACC-62 = tested on: UACC-62
CCRF-CEM = tested on: CCRF-CEM
NCI-H23 = tested on: NCI-H23
HCT-15 = tested on: HCT-15
SF-539 = tested on: SF-539
NCI-H460 = tested on: NCI-H460
EKVX = tested on: EKVX
SW-620 = tested on: SW-620
PC-3 = tested on: PC-3
BT-549 = tested on: BT-549
A549 = tested on: A549
Malme-3M = tested on: Malme-3M
SK-OV-3 = tested on: SK-OV-3
MCF7 = tested on: MCF7
MDA-MB-435 = tested on: MDA-MB-435
Hs-578T = tested on: Hs-578T
SF-295 = tested on: SF-295
MDA-N = tested on: MDA-N
SR = tested on: SR
HT-29 = tested on: HT-29
SN12C = tested on: SN12C
786-0 = tested on: 786-0
SNB-19 = tested on: SNB-19
UACC-257 = tested on: UACC-257
M14 = tested on: M14
HCC 2998 = tested on: HCC 2998
UO-31 = tested on: UO-31
A498 = tested on: A498
COLO 205 = tested on: COLO 205
NCI-H226 = tested on: NCI-H226
HCT-116 = tested on: HCT-116
SK-MEL-5 = tested on: SK-MEL-5
LOX IMVI = tested on: LOX IMVI
ACHN = tested on: ACHN
SF-268 = tested on: SF-268
SNB-75 = tested on: SNB-75
MOLT-4 = tested on: MOLT-4
MDA-MB-231 = tested on: MDA-MB-231
KM12 = tested on: KM12
HL-60 = tested on: HL-60
IGROV-1 = tested on: IGROV-1
CAKI-1 = tested on: CAKI-1
TK-10 = tested on: TK-10
OVCAR-3 = tested on: OVCAR-3
NCI/ADR-RES = tested on: NCI/ADR-RES
U-251 = tested on: U-251
OVCAR-5 = tested on: OVCAR-5
OVCAR-4 = tested on: OVCAR-4
RXF 393 = tested on: RXF 393
SK-MEL-2 = tested on: SK-MEL-2
HOP-92 = tested on: HOP-92

Structure (SMILES): CC(C)OP(=O)(OC(C)C)c1ccc2c(c1)OCCOCCOCCOCCO2
- GI50 (T47D): > 100 µM (inactive)
- GI50 (HOP-62): > 100 µM (inactive)
- GI50 (K562): > 100 µM (inactive)
- GI50 (SK-MEL-28): > 100 µM (inactive)
- GI50 (NCI-H522): > 100 µM (inactive)
- GI50 (OVCAR-8): > 100 µM (inactive)
- GI50 (RPMI-8226): > 100 µM (inactive)
- GI50 (DU-145): > 100 µM (inactive)
- GI50 (UACC-62): > 100 µM (inactive)
- GI50 (CCRF-CEM): > 100 µM (inactive)
- GI50 (NCI-H23): > 100 µM (inactive)
- GI50 (HCT-15): > 100 µM
- GI50 (SF-539): > 100 µM (inactive)
- GI50 (NCI-H460): > 100 µM (inactive)
- GI50 (EKVX): > 100 µM (inactive)
- GI50 (SW-620): > 100 µM (inactive)
- GI50 (PC-3): > 100 µM (inactive)
- GI50 (BT-549): > 100 µM (inactive)
- GI50 (A549): > 100 µM (inactive)
- GI50 (Malme-3M): > 100 µM (inactive)
- GI50 (SK-OV-3): > 100 µM (inactive)
- GI50 (MCF7): > 100 µM (inactive)
- GI50 (MDA-MB-435): > 100 µM (inactive)
- GI50 (Hs-578T): > 100 µM (inactive)
- GI50 (SF-295): > 100 µM (inactive)
- GI50 (MDA-N): > 100 µM (inactive)
- GI50 (SR): > 100 µM (inactive)
- GI50 (HT-29): > 100 µM (inactive)
- GI50 (SN12C): > 100 µM (inactive)
- GI50 (786-0): > 100 µM (inactive)
- GI50 (SNB-19): > 100 µM (inactive)
- GI50 (UACC-257): > 100 µM (inactive)
- GI50 (M14): > 100 µM (inactive)
- GI50 (HCC 2998): > 100 µM (inactive)
- GI50 (UO-31): > 100 µM (inactive)
- GI50 (A498): > 100 µM (inactive)
- GI50 (COLO 205): > 100 µM (inactive)
- GI50 (NCI-H226): > 100 µM (inactive)
- GI50 (HCT-116): > 100 µM (inactive)
- GI50 (SK-MEL-5): > 100 µM (inactive)
- GI50 (LOX IMVI): 95.7 µM (inactive)
- GI50 (ACHN): > 100 µM (inactive)
- GI50 (SF-268): > 100 µM (inactive)
- GI50 (SNB-75): > 100 µM (inactive)
- GI50 (MOLT-4): > 100 µM (inactive)
- GI50 (MDA-MB-231): > 100 µM (inactive)
- GI50 (KM12): > 100 µM (inactive)
- GI50 (HL-60): > 100 µM (inactive)
- GI50 (IGROV-1): > 100 µM (inactive)
- GI50 (CAKI-1): > 100 µM (inactive)
- GI50 (TK-10): > 100 µM (inactive)

Structure (SMILES): Cc1cc(S(=O)(=O)Nc2nc(N)n[nH]2)c(Cl)cc1Cl
- GI50 (T47D): > 10 µM (inactive)
- GI50 (HOP-62): > 10 µM (inactive)
- GI50 (K562): > 10 µM (inactive)
- GI50 (SK-MEL-28): > 10 µM (inactive)
- GI50 (NCI-H522): > 10 µM (inactive)
- GI50 (OVCAR-8): > 10 µM (inactive)
- GI50 (OVCAR-3): > 10 µM (inactive)
- GI50 (RPMI-8226): > 10 µM (inactive)
- GI50 (NCI/ADR-RES): > 10 µM (inactive)
- GI50 (DU-145): > 10 µM (inactive)
- GI50 (UACC-62): > 10 µM (inactive)
- GI50 (CCRF-CEM): > 10 µM (inactive)
- GI50 (NCI-H23): > 10 µM (inactive)
- GI50 (U-251): > 10 µM (inactive)
- GI50 (OVCAR-5): > 10 µM (inactive)
- GI50 (OVCAR-4): > 10 µM (inactive)
- GI50 (HCT-15): > 10 µM
- GI50 (SF-539): > 10 µM (inactive)
- GI50 (NCI-H460): > 10 µM (inactive)
- GI50 (EKVX): > 10 µM (inactive)
- GI50 (SW-620): > 10 µM (inactive)
- GI50 (PC-3): > 10 µM (inactive)
- GI50 (BT-549): > 10 µM (inactive)
- GI50 (A549): > 10 µM (inactive)
- GI50 (Malme-3M): > 10 µM (inactive)
- GI50 (SK-OV-3): > 10 µM (inactive)
- GI50 (MDA-MB-435): > 10 µM (inactive)
- GI50 (Hs-578T): > 10 µM (inactive)
- GI50 (RXF 393): > 10 µM (inactive)
- GI50 (SF-295): > 10 µM (inactive)
- GI50 (MDA-N): > 10 µM (inactive)
- GI50 (HT-29): > 10 µM (inactive)
- GI50 (SN12C): > 10 µM (inactive)
- GI50 (786-0): > 10 µM (inactive)
- GI50 (SNB-19): > 10 µM (inactive)
- GI50 (UACC-257): > 10 µM (inactive)
- GI50 (M14): > 10 µM (inactive)
- GI50 (HCC 2998): > 10 µM (inactive)
- GI50 (A498): > 10 µM (inactive)
- GI50 (COLO 205): > 10 µM (inactive)
- GI50 (NCI-H226): > 10 µM (inactive)
- GI50 (HCT-116): > 10 µM (inactive)
- GI50 (SK-MEL-5): > 10 µM (inactive)
- GI50 (LOX IMVI): > 10 µM (inactive)
- GI50 (ACHN): > 10 µM (inactive)
- GI50 (SK-MEL-2): > 10 µM (inactive)
- GI50 (SF-268): > 10 µM (inactive)
- GI50 (SNB-75): > 10 µM (inactive)
- GI50 (MOLT-4): > 10 µM (inactive)
- GI50 (MDA-MB-231): > 10 µM (inactive)
- GI50 (KM12): > 10 µM (inactive)
- GI50 (HL-60): > 10 µM (inactive)
- GI50 (IGROV-1): > 10 µM (inactive)
- GI50 (CAKI-1): > 10 µM (inactive)
- GI50 (TK-10): > 10 µM (inactive)

Structure (SMILES): O=C1C(=CNc2ccc([N+](=O)[O-])cc2)C(=O)N(c2ccccc2)C(=O)N1c1ccccc1
- GI50 (T47D): 70.1 µM (inactive)
- GI50 (HOP-62): > 100 µM (inactive)
- GI50 (K562): > 100 µM (inactive)
- GI50 (NCI-H522): > 100 µM (inactive)
- GI50 (OVCAR-8): > 100 µM (inactive)
- GI50 (OVCAR-3): 56.6 µM (inactive)
- GI50 (RPMI-8226): 71.6 µM (inactive)
- GI50 (NCI/ADR-RES): > 100 µM (inactive)
- GI50 (UACC-62): 41.3 µM (inactive)
- GI50 (CCRF-CEM): > 100 µM (inactive)
- GI50 (NCI-H23): > 100 µM (inactive)
- GI50 (U-251): > 100 µM (inactive)
- GI50 (OVCAR-5): > 100 µM (inactive)
- GI50 (OVCAR-4): > 100 µM (inactive)
- GI50 (HCT-15): 76 µM
- GI50 (NCI-H460): > 100 µM (inactive)
- GI50 (EKVX): > 100 µM (inactive)
- GI50 (SW-620): > 100 µM (inactive)
- GI50 (PC-3): > 100 µM (inactive)
- GI50 (BT-549): > 100 µM (inactive)
- GI50 (A549): > 100 µM (inactive)
- GI50 (Malme-3M): > 100 µM (inactive)
- GI50 (SK-OV-3): > 100 µM (inactive)
- GI50 (MCF7): > 100 µM (inactive)
- GI50 (MDA-MB-435): > 100 µM (inactive)
- GI50 (Hs-578T): > 100 µM (inactive)
- GI50 (RXF 393): > 100 µM (inactive)
- GI50 (SF-295): 66.2 µM (inactive)
- GI50 (MDA-N): > 100 µM (inactive)
- GI50 (SR): > 100 µM (inactive)
- GI50 (HT-29): > 100 µM (inactive)
- GI50 (SN12C): > 100 µM (inactive)
- GI50 (786-0): > 100 µM (inactive)
- GI50 (SNB-19): > 100 µM (inactive)
- GI50 (HOP-92): > 100 µM (inactive)
- GI50 (UACC-257): > 100 µM (inactive)
- GI50 (M14): 73.1 µM (inactive)
- GI50 (HCC 2998): > 100 µM (inactive)
- GI50 (UO-31): > 100 µM (inactive)
- GI50 (A498): > 100 µM (inactive)
- GI50 (COLO 205): > 100 µM (inactive)
- GI50 (NCI-H226): > 100 µM (inactive)
- GI50 (HCT-116): > 100 µM (inactive)
- GI50 (SK-MEL-5): > 100 µM (inactive)
- GI50 (LOX IMVI): > 100 µM (inactive)
- GI50 (ACHN): 64.7 µM (inactive)
- GI50 (SK-MEL-2): 85.7 µM (inactive)
- GI50 (SF-268): > 100 µM (inactive)
- GI50 (SNB-75): 71.6 µM (inactive)
- GI50 (MOLT-4): > 100 µM (inactive)
- GI50 (MDA-MB-231): > 100 µM (inactive)
- GI50 (KM12): 36.7 µM (inactive)
- GI50 (IGROV-1): > 100 µM (inactive)
- GI50 (CAKI-1): > 100 µM (inactive)
- GI50 (TK-10): 25.5 µM (inactive)
